Legend:
MCTs [1] = type: in vivo, piglet; conditions: pig, in vivo
Experimental: The piglets (n = 6) were inititally anaesthetised with intramuscular injections of stresnil and ursotamin, and anaesthesia was maintained with intravenous ursotamin and midazolam, as required. The hematocrit was measured in an ear vein blood sample collected just prior to imaging. Either saline (n = 3) or 25 mg/kg α-CCA-Na (n = 3) in saline was administrated ten min before i.v. administration of [^18F]FACH (261–327 MBq, corresponding to 218–852 pmol/kg) via an ear vein. Imaging was performed with a simultaneous hybrid PET/MR system (mMR Biograph; Siemens, Erlangen, Germany) equipped with dedicated phased-array surface. PET data were reconstructed into a 128 × 128 matrix (voxel size: 1.40 × 1.40 × 2.03 mm^3) using the built-in OSEM3D algorithm with eight iterations, 21 subsets, and a 3-mm Gaussian filter. The attenuation and decay corrected dynamic sequence consisted of 32 frames as follows: 1 × 15, 11 × 30, 1 × 45, 5 × 60, 1 × 90, 5 × 120, 1 × 180, 4 × 240, 1 × 300, 2 × 360 s, whereas activity concentrations in VOIs are represented in units of SUV or percentage of injected dose (%/ID). After completing the dynamic PET recording, piglets were euthanized with an i.v. overdose of T61 (Intervet Deutschland GmbH, Unterschleißheim, Germany) and tissues were sampled for radio-metabolism studies in selected animals.
The analysis of reconstructed datasets was performed with PMOD software (v4.103, PMOD Technologies LLC, Zurich, Switzerland).
Data are shown in mean ± standard deviation (SD). Group differences were tested by Student’s t-test, with p < 0.05 designated as significant. Area Under the Curves (AUCs) and corresponding 95% confidence intervals (CI95%s) were calculated with GraphPad Prism (v.8.2) following the assumptions described by Gagnon et al..

plasma protein = assay: Plasma protein binding in vitro (ultrafiltration); type: in vitro ADME, piglet; conditions: pig plasma, 20 min at 37 °C
Experimental: To measure plasma protein binding in vitro, a 1 mL portion of piglet plasma was incubated with 4.9 MBq [^18F]FACH (10 µL) on a shaker (400 rpm) for 20 min at 37 °C. The plasma protein binding was also measured ex vivo in 10 µL portions of mouse plasma from retro-orbital blood samples collected 70 min after intravenous (i.v.) injection of 3.7 MBq [^18F]FACH via a tail vein. The free and bound fractions of [^18F]FACH were separated by centrifugation at room temperature (2000 g for ten minutes, Centrifree® YM-30, Ultrafiltration Device; Merck KGaA, Darmstadt, Germany). Radioactivity was measured in aliquots of ultrafiltrate and in prefiltration plasma samples, using a Wizard 2470 γ-counter (PerkinElmer LAS, Rodgau, Germany), and the free fraction in the plasma (fp) calculated from the concentration ratio.

MCTs [2] = assay: Autoradiographic saturation binding (homologous displacement) in mouse kidney cryosections
Experimental: Cryosections from the mouse kidney (10 µm) were cut on a microtome (Microm HM560, Thermo Scientific Microm, Fisher Scientific GmbH, Schwerte, Germany), mounted on glass slides (SuperFrost, Thermo Scientific Menzel, Fisher Scientific GmbH), dried for two hours at room temperature, and stored at −25 °C. Before the binding experiment, the tissue slices were dried under a stream of cold air, pre-incubated with PBS (pH 7.4) for 15 min at room temperature and dried again before incubation with PBS containing [^18F]FACH (1.2 nM) without (total binding) and with different concentrations of FACH-Na (10 µM–0.1 nM; homologous competition) for 60 min. Specific binding to MCTs of [^18F]FACH in cryosections of mouse kidney was determined after co-incubation of 1 nM [^18F]FACH with vehicle or 300 nM α-CCa-Na or 300 nM reference compound (homologous competition).
The incubation was terminated by washing with ice-cold buffer (50 mM TRIS-HCl, pH 7.4) twice for two minutes followed by dipping in ice-cold demineralized water for 5 s and drying under a stream of cold air. The dried sections along with activity standards (1 µL aliquots of different dilutions of the incubation solution dried on microscopic slides) were exposed to phosphor imaging plates (FujiFilm Co., Tokyo, Japan) transferred after 120 min to a phosphor imager (HD-CR 35 Bio; Dürr NDT GmbH & Co. KG, Bietigheim-Bissingen, Germany). Regions of interest (ROIs) were drawn manually or automatically on the tissue slices or standard spots, and the pixelwise results converted to Bq/mg wet weight. Non-linear regression analysis was performed with GraphPad Prism (v.3.0 GraphPad Software, San Diego, CA, USA). KD and Bmax values were calculated by the simplified Cheng and Prusoff equation (http://www3.uah.es/farmamol/Public/GraphPad/radiolig.htm, accessed on 5 February 2021):(1) KD=Ki=IC50−Radioligand (M) (2) Bmax=Top−Bottom/Radioligand (M)/(KD+Radioligand (M))

CCCN(CCC[18F])c1ccc(/C=C(\C#N)C(=O)O)c(OC)c1 [[^18F]FACH, (E)-2-cyano-3-{4-[(3-[^18F]fluoropropyl)(propyl)amino]-2-methoxyphenyl}acrylic acid]
peak TAC SUV kidney cortex (MCTs [1]): 15.3 ± 2.5 | peak TAC SUV kidney medulla (MCTs [1]): 66.1 ± 27.7 | peak TAC SUV liver (MCTs [1]): 13.2 ± 2.7 | free plasma fraction (fp) (plasma protein): 0.03 | Kd (MCTs [2]; mouse kidney cortex (Co) cryosections): 118 ± 12 nM | Kd (MCTs [2]; mouse kidney inner medulla (IM) cryosections): 265 nM | Kd (MCTs [2]; mouse kidney outer medulla (OM) cryosections): 212 nM
